Test results published in patent US20250270206A1, “COMPOSITIONS AND METHODS FOR INHIBITION OF RAS” (TheRas, Inc., priority 2022, published 2025).

Legend:
[1] = biological target: T1, GppNHp-loaded KRAS4b (amino acids 1-169) G12C/C118S (Homo sapiens, UniProt P01116, C118S/G12C); assay: MALDI-TOF MS covalent Cys12 modification, GppNHp-loaded KRAS G12C; assay type: binding; conditions: 15 minutes reaction time, 1 μM protein, 1:2.5 protein to compound ratio
T1 construct: KRAS4b (amino acids 1-169) G12C/C118S protein; made in house
Protocol: (§1) MALDI-TOF MS analysis was performed using 1 μM protein target, and 1:2.5 protein to compound ratio was used.
(§2) Reaction: 1 μM of GppNHp, GTP, or GDP-loaded KRAS4b (amino acids 1-169) G12C/C118S protein (produced in-house by Protein Expression Laboratory, FNLCR/Leidos Biomed) in 20 mM 4-(2-hydroxyethyl)-1-piperazineethanesulfonic acid (HEPES) buffer containing 150 mM NaCl, 1 mM MgCl2, pH 7.3 was prepared freshly before assay. Ten-μL aliquots of protein were dispensed onto low volume 384-well plate, then 375 nL DMSO, and 25 nL of tested compounds from 5 mM DMSO stocks were added to appropriate wells using ECHO 555 acoustic liquid handler (Labcyte Inc.). For each reaction/assay, three blanks were prepared by mixing 10 μL of protein solution with 400 nL DMSO. The contents of the wells were carefully mixed by aspiration, and then each plate was sealed with an adhesive cover, centrifuged at 2000 g for 1 minute, and kept in the dark at room temperature until 5 min, 15 min, 30 min, 2 h, or 6 h collections.
(§3) Target pretreatment: Before each assay MALDI target (Bruker MPT 384 ground steel BC) was pre-treated by pipetting on each spot 0.75 μL of saturated sinapinic acid in acetonitrile (ACN).
(§4) Sample preparation: At collection time point, 2 μL of reaction mixtures were pipetted out into 20 μL MALDI matrix solution (saturated solution of sinapinic acid in 1:1 ACN:water solution containing 0.75% trifluoroacetic acid (TFA)) deposited on 384 well polypropylene plate. Resulting solution was mixed by aspiration, centrifuged at 2000 g for 1 minute, then 1 μL aliquots were dispensed on pre-treated MALDI target using Beckman Coulter Biomek FX^P 96/384-Span-8 Laboratory Automation Workstation. Finally, the MALDI target was dried under mild vacuum to produce spots with fine crystalline structure.
(§5) Measurements: MALDI-TOF measurements were performed on a Bruker Daltonics rapifleX Tissuetyper TOF-TOF mass spectrometer using linear mode and mass range from 18.6 to 21.6 kDa. Detector gain was set to 3.3× (483 V), sample rate to 5 GS/s, real time smoothing to medium (175 MHz), laser smart beam pattern was set to: “MS Thin Layer M5”, and the laser frequency was 10000 Hz. Spectra were automatically collected using custom AutoXecute method. Laser power was auto adjusted using fuzzy control. The peak selection range was set to be between 19000 and 21500 Da. Peak evaluation uses half width parameter set to be smaller than 40 Da for processed spectrograms (centroid peak detection: smoothed by SavitzkyGolay algorithm using 7 m/z width and 2 cycles; baseline was subtracted using median algorithm with flatness 1 and median level 0.01). Fuzzy control used Proteins/Oligonucleotides protocol with minimum half width 1/10 times above threshold. Up to 40000 satisfactory shots were collected in 10000 shot steps. Dynamic termination was implemented to finish data collection when peak signal/noise ratio reached a value of 50.
(§6) Spectra processing: Spectra were smoothed by SavitzkyGolay algorithm using 7 m/z width and three cycles. Centroid peak detection algorithm was used with signal to noise threshold set to 6, relative intensity threshold 4%, peak width 10 m/z and median baseline subtraction using flatness of 1 and median level of 0.01. Peak intensity and area under the peak were evaluated and recorded for all peaks between 19,300 Da and 21,550 Da.
(§7) Calculation of percent modification: Percent modification was calculated as a ratio of peak height for protein modified by compound to sum of peak height of remaining protein plus peak height for protein modified by compound. If multiple modifications were observed each was calculated as a ratio of peak height for given modification versus sum of peak heights for all observed protein species. Data reported in Table 5 are from the 15 minutes reaction time point.

[2] = biological target: T2, GTP-loaded KRAS4b (amino acids 1-169) G12C/C118S (Homo sapiens, UniProt P01116, C118S/G12C); assay: MALDI-TOF MS covalent Cys12 modification, GTP-loaded KRAS G12C; assay type: binding; conditions: 15 minutes reaction time, 1 μM protein, 1:2.5 protein to compound ratio
T2 construct: KRAS4b (amino acids 1-169) G12C/C118S protein; made in house
Protocol: as §1, §2, §3, §4, §5, §6, §7

[3] = biological target: T3, Avi-KRAS G12C (1-169) GppNHp/RAF1 RBD-3×FLAG (52-151) (Homo sapiens, UniProt P01116, G12C); assay: KRAS G12C-effector (RAF1 RBD) protein:protein interaction HTRF disruption assay; assay type: biochemical; conditions: PPI HTRF
T3 construct: Avi-KRAS G12C (1-169) GppNHp
Protocol: A protein:protein interaction (PPI) Homogeneous Time Resolved Fluorescence (HTRF) assay was used to determine the effectiveness of compounds of the present disclosure in disrupting KRAS G12C protein and effector (RAF1) binding.
The HTRF assay used the following reagents and proteins: 50 nM Avi-KRAS G12C (1-169) GppNHp/RAF1 RBD-3×FLAG (52-151); 75 nM Avi-RAF1 RBD-3×FLAG; Assay Buffer: 50 mM Tris pH 7.5, 100 mM NaCl, 5 mM MgCl2, 0.1% BSA, 0.01% Tween 20, 10% DMSO; Bead Buffer: 50 mM Tris pH 7.5, 0.01% Tween 20; Assay volume: 20 μL (384 well plate-low volume format); and Compound titration: 30-0.02 μM, 3× dilution series.
The HTRF assay employed the following protocol:
Compounds were dispensed in assay plate (384-well, Grenier Bione #784075) using Echo (model 555) with dose response settings: 200 nL final volume, titration from 100 μM as a 10-point dilution series. KRAS proteins were prepared in assay buffer, and dispensed on plates, 5 μL per well, then incubated for 1 h at room temperature, with 700 rpm shaking. RAF1 RBD were prepared in assay buffer, dispensed onto plates, 5 μL per well, and then incubated for 1 h at room temperature, with 700 rpm shaking. Reagent mix was then prepared and dispensed on plates, 10 μL per well, and then incubated for 1 h at room temperature, with 700 rpm shaking.
Plates were analyzed on an Envision plate reader using the following setting: Excitation 320 nm, Bandwidth 75 nm, Emission 615 nm, Bandwidth 85 nm; Gain 100%; Flashes 100; Lag 60 μs. Data was reported as percentage of activity, with DMSO as 100%. Data was plotted and analyzed using Prism 8.

[4] = test system: pERK in NCI-H358 cells; assay: Cell-based pERK HTRF assay; conditions: Homo sapiens, 0.5 h, 30 min incubation
Protocol: pERK HTRF assays (Perkin Elmer) were used to determine the effectiveness of compounds of the present disclosure in disrupting KRAS G12C protein/effector signaling in cells.
On Day 1, cells (NCI-H358) were seeded into 96-well plates at 4×10^4 cells/well in complete growth media (RPMI, 10% FBS).
On Day 2, cells were treated with compounds at 0.25% DMSO. The source plate was created with compounds diluted in media at 5-fold the final assay concentration. The compounds were run in a 9-point concentration curve starting at 75 μM, with a 3-fold dilution between concentrations. 20 μL was transferred onto the cell plates (final volume in wells was 100 μL). Plates were harvested after 30 min incubation by aspirating media and adding kit-supplied 1× supplemented lysis buffer to all wells (75 μL per well). Plates were then placed on a plate shaker and incubated at 850 rpm for an additional 30 min.
Antibody mixture solution was prepared by diluting aliquoted d2 and Eu Cryptate antibodies 1:20 in kit supplied detection buffer, then mixed the diluted antibodies solutions (1:1 v:v). 4 μL of this solution was then added to a 384-well detection plate (Perkin Elmer; 6008230).
Samples were homogenized by pipetting up and down and then transferred (16 μL of cell lysates) from the 96-well cell culture plate to two wells of the HTRF 384-well detection plate containing the antibody solution. Plates were centrifuged (524 g for 1 min) and allowed to incubate between 4 and 24 h at room temperature. Maximum signal is reached after 4 h incubation time and remains stable over a period of 24 hours. Therefore, readings can be made between 4 and 24 h of incubation. Plates were centrifuged again (524 g for 1 min) and analyzed on the EnVision plate reader using the following settings: Excitation 320 nm, Bandwidth 75 nm; Emission 615 nm, Bandwidth 85 nm; Gain 100%; Flashes 100; Lag 60 μs.

[5] = biological target: T4, GDP-loaded KRAS4b (amino acids 1-169) G12C/C118S (Homo sapiens, UniProt P01116, C118S/G12C); assay: MALDI-TOF MS covalent Cys12 modification, GDP-loaded KRAS G12C; assay type: binding; conditions: 15 minutes reaction time, 1 μM protein, 1:2.5 protein to compound ratio
T4 construct: KRAS4b (amino acids 1-169) G12C/C118S protein; made in house
Protocol: as §1, §2, §3, §4, §5, §6, §7

SMILES	GppNHp-KRAS G12C percent of modification [1]	GTP-KRAS G12C percent of modification [2]	IC50 [3] [nM]	IC50 [4] [nM]	GDP-KRAS G12C percent of modification [5]
C=CC(=O)N1CCC(N(C)c2nc(OC[C@@]34CCCN3C[C@H](F)C4)nc3c(Cl)c(-c4ccc(F)c5sc(N)c(C#N)c45)ncc23)[C@H]1COC (mixture of isomers) [Compound 29, 4-(4-((rac-(2S,3R)-1-acryloyl-2-(methoxymethyl)pyrrolidin-3-yl)(methyl)amino)-8-chloro-2-(((2R,7aS)-2-fluorotetrahydro-1H-pyrrolizin-7a(5H)-yl)methoxy)pyrido[4,3-d]pyrimidin-7-yl)-2-amino-7-fluorobenzo[b]thiophene-3-carbonitrile]	A (percent of modification ≥70%)	A (percent of modification ≥70%)	≤ 500	≤ 100	A (percent of modification ≥70%)
C=CC(=O)N1CC[C@@H](N(C)c2nc(OC[C@@]34CCCN3C[C@H](F)C4)nc3c(F)c(-c4c(F)cc(F)c5sc(N)nc45)ncc23)C1 [Compound 5]	A (percent of modification ≥70%)	A (percent of modification ≥70%)	≤ 500	≤ 100	A (percent of modification ≥70%)
C=CC(=O)N1CC[C@@H](N(C)c2nc(OC[C@@]34CCCN3C[C@H](F)C4)nc3c(F)c(-c4ccc(F)c5sc(N)c(C#N)c45)ncc23)C1 [Compound 6, 2-amino-7-fluoro-4-[8-fluoro-2-[[(2R,8S)-2-fluoro-1,2,3,5,6,7-hexahydropyrrolizin-8-yl]methoxy]-4-[methyl-[(3R)-1-prop-2-enoylpyrrolidin-3-yl]amino]pyrido[4,3-d]pyrimidin-7-yl]benzothiophene-3-carbonitrile]	A (percent of modification ≥70%)	A (percent of modification ≥70%)	≤ 500	≤ 100	A (percent of modification ≥70%)
C=CC(=O)N1C[C@H](C)N(c2nc(OC[C@@]34CCCN3C[C@H](F)C4)nc3c(F)c(-c4ccc(F)c5sc(N)c(C#N)c45)ncc23)C[C@H]1C [Compound 7, 2-amino-4-[4-[(2S,5R)-2,5-dimethyl-4-prop-2-enoyl-piperazin-1-yl]-8-fluoro-2-[[(2R,8S)-2-fluoro-1,2,3,5,6,7-hexahydropyrrolizin-8-yl]methoxy]pyrido[4,3-d]pyrimidin-7-yl]-7-fluoro-benzothiophene-3-carbonitrile]	B (50% percent of modification <70%)	D (percent of modification <10%)	≤ 500	≤ 100	A (percent of modification ≥70%)
C=CC(=O)N1CC[C@@H](N(C)c2nc(OC[C@@]34CCCN3C[C@H](F)C4)nc3cc(-c4ccc(F)c5sc(N)c(C#N)c45)c(C(F)(F)F)nc23)C1 [Compound 8]	C (10%≤percent of modification <50%)	C (10%≤percent of modification <50%)	≤ 500	≤ 100	C (10%≤percent of modification <50%)
C=CC(=O)N1CC[C@@H](N(C)c2nc(OC[C@@]34CCCN3C[C@H](F)C4)nc3nc(-c4ccc(F)c5sc(N)c(C#N)c45)ccc23)C1 [Compound 9, 4-(4-(((R)-1-acryloylpyrrolidin-3-yl)(methyl)amino)-2-(((2R,7aS)-2-fluorotetrahydro-1H-pyrrolizin-7a(5H)-yl)methoxy)pyrido[2,3-d]pyrimidin-7-yl)-2-amino-7-fluorobenzo[b]thiophene-3-carbonitrile]	C (10%≤percent of modification <50%)	C (10%≤percent of modification <50%)	≤ 500	> 1000	A (percent of modification ≥70%)
C=CC(=O)N1C[C@H](C)N(c2nc(OC[C@@]34CCCN3C[C@H](F)C4)nc3cc(-c4ccc(F)c5sc(N)c(C#N)c45)c(C(F)(F)F)nc23)C[C@H]1C [Compound 10, 4-(4-((2S,5R)-4-acryloyl-2,5-dimethylpiperazin-1-yl)-2-(((2R,7aS)-2-fluorotetrahydro-1H-pyrrolizin-7a(5H)-yl)methoxy)-6-(trifluoromethyl)pyrido[3,2-d]pyrimidin-7-yl)-2-amino-7-fluorobenzo[b]thiophene-3-carbonitrile]	A (percent of modification ≥70%)	C (10%≤percent of modification <50%)	≤ 500	≤ 100	A (percent of modification ≥70%)
